Test system: MMP-2
Experiment: Substrate phage display with NGS: relative probability (RP) of P3-P1' tetramer clusters;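 on relative probability (RP): ratio of tetramer probability after protease selection to that in naive phage library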
Type: biochemical, human
Details: MMP2 - no binning; average relative probability of the P3-P1' tetramer; redundant tetramers have been averaged out

Question: Which avg_RP does the source give for WGNL here?
Answer: 14.7295

Question: Which avg_RP does the source give for WGNM here?
Answer: 3.7232

Question: With WHNM as the substance, how does the avg_RP read?
Answer: 0

Question: Which avg_RP does the source give for WLAL here?
Answer: 1.2175

Question: With WLNL as the substance, how does the avg_RP read?
Answer: 0.1218

Question: WLPI was tested. Which avg_RP did it give?
Answer: 0.6666

Question: For WQNL, which avg_RP is on record?
Answer: 6.2916

Question: For WRHL, which avg_RP is on record?
Answer: 0.4087

Question: With WSGM as the substance, how does the avg_RP read?
Answer: 18.3143

Question: Which avg_RP does the source give for WSNL here?
Answer: 17.9326

Question: How did the avg_RP turn out when WYGM was run?
Answer: 0.0531

Question: For YANL, which avg_RP is on record?
Answer: 27.7486

Question: For YANM, which avg_RP is on record?
Answer: 22.6837

Question: YASM was tested. Which avg_RP did it give?
Answer: 24.1553

Question: For YAYI, which avg_RP is on record?
Answer: 1.7086

Question: How did the avg_RP turn out when YFNL was run?
Answer: 0

Question: How did the avg_RP turn out when YFPL was run?
Answer: 0.1432

Question: For YFSM, which avg_RP is on record?
Answer: 0.0661

Question: How did the avg_RP turn out when YGEL was run?
Answer: 16.6627

Question: Which avg_RP does the source give for YGHL here?
Answer: 11.3746

Question: For YGNM, which avg_RP is on record?
Answer: 13.8836

Question: Which avg_RP does the source give for YLPM here?
Answer: 0.4306

Question: YMGL was tested. Which avg_RP did it give?
Answer: 0.0982

Question: Which avg_RP does the source give for YMNI here?
Answer: 0

Question: YRGL was tested. Which avg_RP did it give?
Answer: 5.4447

Question: With YRHM as the substance, how does the avg_RP read?
Answer: 0.3212

Question: With YRSL as the substance, how does the avg_RP read?
Answer: 1.5061

Same assay, conditions: MMP2 - no binning; average relative probability of the tetramer; redundant tetramers averaged out

Question: With PYGM as the substance, how does the avg_RP read?
Answer: 27.2726

Question: How did the avg_RP turn out when PYHI was run?
Answer: 15.3574

Question: PYHL was tested. Which avg_RP did it give?
Answer: 27.2418

Question: How did the avg_RP turn out when PYKL was run?
Answer: 15.5683

Question: How did the avg_RP turn out when PYKY was run?
Answer: 4.8733

Question: How did the avg_RP turn out when PYNL was run?
Answer: 30.8263

Question: With PYPL as the substance, how does the avg_RP read?
Answer: 30.8058

Question: For PYSL, which avg_RP is on record?
Answer: 30.7259

Question: For PYSW, which avg_RP is on record?
Answer: 16.4352

Question: QLSL was tested. Which avg_RP did it give?
Answer: 0.4979

Question: Which avg_RP does the source give for QQGL here?
Answer: 6.4014

Question: Which avg_RP does the source give for SANL here?
Answer: 23.7816

Question: Which avg_RP does the source give for SGAL here?
Answer: 13.4712

Question: With SGHL as the substance, how does the avg_RP read?
Answer: 1.458

Question: How did the avg_RP turn out when SHGL was run?
Answer: 0.2009

Question: SLAL was tested. Which avg_RP did it give?
Answer: 6.0193

Question: Which avg_RP does the source give for SLAW here?
Answer: 18.2943

Question: SLNL was tested. Which avg_RP did it give?
Answer: 3.3019

Question: How did the avg_RP turn out when SNWL was run?
Answer: 9.68

Question: How did the avg_RP turn out when SRAL was run?
Answer: 12.4506

Question: SRGL was tested. Which avg_RP did it give?
Answer: 6.1644

Question: Which avg_RP does the source give for SWGL here?
Answer: 0.1389

Question: For SYNL, which avg_RP is on record?
Answer: 6.0933

Question: Which avg_RP does the source give for TFHL here?
Answer: 0.1298

Question: How did the avg_RP turn out when TLAL was run?
Answer: 1.9537

Question: With TNWL as the substance, how does the avg_RP read?
Answer: 15.348

Question: How did the avg_RP turn out when TQNL was run?
Answer: 7.2378

Question: Which avg_RP does the source give for TRWL here?
Answer: 15.1455

Question: For TRWY, which avg_RP is on record?
Answer: 6.7229

Question: VAAV was tested. Which avg_RP did it give?
Answer: 19.031

Question: With VAKM as the substance, how does the avg_RP read?
Answer: 17.3627

Question: With VAYL as the substance, how does the avg_RP read?
Answer: 26.5348

Question: With VEAL as the substance, how does the avg_RP read?
Answer: 10.756

Question: With VEML as the substance, how does the avg_RP read?
Answer: 2.1238

Question: For VFEL, which avg_RP is on record?
Answer: 0.8652

Question: Which avg_RP does the source give for VFSI here?
Answer: 0.2237

Question: Which avg_RP does the source give for VFSL here?
Answer: 9.6313

Question: For VFWY, which avg_RP is on record?
Answer: 6.3003

Question: Which avg_RP does the source give for VGAL here?
Answer: 32.8382

Question: Which avg_RP does the source give for VHHL here?
Answer: 14.1228

Question: How did the avg_RP turn out when VKGM was run?
Answer: 15.5854

Question: VKWL was tested. Which avg_RP did it give?
Answer: 19.0036

Question: With VLNL as the substance, how does the avg_RP read?
Answer: 18.9065

Question: With VLSL as the substance, how does the avg_RP read?
Answer: 10.8506

Question: Which avg_RP does the source give for VMGI here?
Answer: 12.4242

Question: With VMNY as the substance, how does the avg_RP read?
Answer: 12.7895

Question: Which avg_RP does the source give for VNHL here?
Answer: 12.8499

Question: With VNWM as the substance, how does the avg_RP read?
Answer: 16.277

Question: How did the avg_RP turn out when VQHL was run?
Answer: 22.9738

Question: With VRAH as the substance, how does the avg_RP read?
Answer: 14.8064

Question: For VRAI, which avg_RP is on record?
Answer: 26.2338

Question: For VRAL, which avg_RP is on record?
Answer: 30.4312

Question: Which avg_RP does the source give for VRAV here?
Answer: 10.114

Question: With VRDL as the substance, how does the avg_RP read?
Answer: 21.7219

Question: How did the avg_RP turn out when VRFL was run?
Answer: 15.0438

Question: How did the avg_RP turn out when VRGL was run?
Answer: 29.092

Question: VRGM was tested. Which avg_RP did it give?
Answer: 26.4376

Question: With VRGV as the substance, how does the avg_RP read?
Answer: 2.6159

Question: For VRHL, which avg_RP is on record?
Answer: 25.4239

Question: With VRHV as the substance, how does the avg_RP read?
Answer: 9.5401

Question: For VRKL, which avg_RP is on record?
Answer: 0

Question: How did the avg_RP turn out when VRLL was run?
Answer: 4.002

Question: VRMM was tested. Which avg_RP did it give?
Answer: 13.0027

Question: How did the avg_RP turn out when VRNV was run?
Answer: 5.0406

Question: How did the avg_RP turn out when VRQL was run?
Answer: 16.7722

Question: With VRSI as the substance, how does the avg_RP read?
Answer: 11.7832

Question: For VRWS, which avg_RP is on record?
Answer: 8.0593

Question: Which avg_RP does the source give for VRWY here?
Answer: 17.3102

Question: VRYL was tested. Which avg_RP did it give?
Answer: 18.3724

Question: Which avg_RP does the source give for VSFL here?
Answer: 5.9184

Question: VVWY was tested. Which avg_RP did it give?
Answer: 9.9375

Question: Which avg_RP does the source give for VWAI here?
Answer: 3.2193

Question: With VWHI as the substance, how does the avg_RP read?
Answer: 1.9312

Question: Which avg_RP does the source give for VWML here?
Answer: 1.4023

Question: How did the avg_RP turn out when VWNL was run?
Answer: 14.4124

Question: VWNY was tested. Which avg_RP did it give?
Answer: 4.6964

Question: How did the avg_RP turn out when VWPL was run?
Answer: 5.2943

Question: How did the avg_RP turn out when VYGL was run?
Answer: 17.3788

Question: Which avg_RP does the source give for VYLL here?
Answer: 1.2276

Question: How did the avg_RP turn out when VYNL was run?
Answer: 19.1818

Question: With VYWL as the substance, how does the avg_RP read?
Answer: 16.4375

Question: For VYWM, which avg_RP is on record?
Answer: 12.492

Question: With WAHI as the substance, how does the avg_RP read?
Answer: 0.0575

Question: For WASI, which avg_RP is on record?
Answer: 12.5247

Question: For WFAL, which avg_RP is on record?
Answer: 0

Question: Which avg_RP does the source give for WFNL here?
Answer: 0

Question: For WHGL, which avg_RP is on record?
Answer: 0.5588

Question: How did the avg_RP turn out when WMNL was run?
Answer: 0

Question: Which avg_RP does the source give for WQGL here?
Answer: 12.939

Question: With WRAF as the substance, how does the avg_RP read?
Answer: 9.8395

Question: For WRAL, which avg_RP is on record?
Answer: 22.4074

Question: With WRAY as the substance, how does the avg_RP read?
Answer: 17.4833

Question: For WRGL, which avg_RP is on record?
Answer: 23.375

Question: For WRNL, which avg_RP is on record?
Answer: 6.7583

Question: With WSSL as the substance, how does the avg_RP read?
Answer: 16.6561

Question: With WSWL as the substance, how does the avg_RP read?
Answer: 7.8776

Question: Which avg_RP does the source give for WYGI here?
Answer: 0.0533

Question: Which avg_RP does the source give for YAGL here?
Answer: 20.9112

Question: How did the avg_RP turn out when YAHL was run?
Answer: 18.7061

Question: How did the avg_RP turn out when YASL was run?
Answer: 26.9916

Question: Which avg_RP does the source give for YGNL here?
Answer: 24.0019

Question: How did the avg_RP turn out when YHHL was run?
Answer: 0

Question: How did the avg_RP turn out when YLHL was run?
Answer: 0.4077

Question: How did the avg_RP turn out when YMSL was run?
Answer: 0.0725

Question: With YNHL as the substance, how does the avg_RP read?
Answer: 3.693

Question: How did the avg_RP turn out when YQGL was run?
Answer: 4.3322

Same assay, conditions: tetramer annotation of MMP-2 cleavage sites in physiologic substrates from MEROPS

Question: For RIIG, which “relative probability (RP)” value is on record?
Answer: 0.08

Same assay, conditions: tetramer clusters unique to the MMP-2 selectome, MMP-2 RP

Question: How did the relative_probability turn out when VANW [P3-P1' tetramer cluster] was run?
Answer: 29.92

Question: For YAAL [P3-P1' tetramer cluster], which relative_probability is on record?
Answer: 30.40
